This experiment concerns the target T1, full-length SARM1 (FL-SARM1) (Homo sapiens, UniProt Q6SZW1).
T1 sequence (Q6SZW1 28-724): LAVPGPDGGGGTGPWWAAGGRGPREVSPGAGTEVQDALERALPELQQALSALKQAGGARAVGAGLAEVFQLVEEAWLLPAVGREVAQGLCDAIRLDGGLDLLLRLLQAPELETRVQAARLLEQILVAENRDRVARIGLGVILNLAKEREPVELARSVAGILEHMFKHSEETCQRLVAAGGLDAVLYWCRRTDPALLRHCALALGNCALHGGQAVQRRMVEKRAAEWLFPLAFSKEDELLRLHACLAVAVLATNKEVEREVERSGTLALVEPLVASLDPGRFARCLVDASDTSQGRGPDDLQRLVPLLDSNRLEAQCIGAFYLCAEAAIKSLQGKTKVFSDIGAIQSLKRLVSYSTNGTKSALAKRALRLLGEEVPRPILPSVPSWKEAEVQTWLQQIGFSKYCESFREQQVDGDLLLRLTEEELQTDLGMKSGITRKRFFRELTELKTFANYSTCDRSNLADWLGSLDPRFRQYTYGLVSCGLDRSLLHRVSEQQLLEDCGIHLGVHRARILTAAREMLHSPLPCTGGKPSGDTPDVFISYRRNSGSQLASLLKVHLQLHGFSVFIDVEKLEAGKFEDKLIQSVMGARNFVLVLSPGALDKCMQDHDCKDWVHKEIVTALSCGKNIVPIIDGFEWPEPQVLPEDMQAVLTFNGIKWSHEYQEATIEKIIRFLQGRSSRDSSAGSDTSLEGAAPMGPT
In words: FL-SARM1 cellular lysate assay (NAD/NADH-Glo detection of remaining NAD+, NMN-activated).

Setting [1] is: Activity (μM) (IC50), 11 point curve.
Where [2] appears, read: read-out: Activity (IC50 class), 11 point curve.
Setting [3] is: Activity (IC50 class), 11 point curve.

SMILES strings stand for the structures. Like-named read-outs stand apart in the source and are kept apart here.

The term IC50 denotes the concentration needed to halve the response being measured. `Cc1ccc(NC(=O)N2C3C[C@@H]2CC[C@H]3C)cc1-c1ccccn1` (single isomer, unassigned) [Example 48, trans-2-methyl-N-(4-methyl-3-(pyridin-2-yl)phenyl)-6-azabicyclo[3.1.1]heptane-6-carboxamide]: the IC50 reads like this: under setting [1], 0.1 µM; under setting [2], 0.0001 to 1 µM.

For `Cc1ccc(NC(=O)N2C3C[C@@H]2CC[C@H]3C)cc1-c1ccccn1` (single isomer, unassigned) [Example 49, trans-2-methyl-N-(4-methyl-3-(pyridin-2-yl)phenyl)-6-azabicyclo[3.1.1]heptane-6-carboxamide], the IC50 was 0.2 µM under setting [1] and 0.0001 to 1 µM under setting [2].

`Cc1ccc(NC(=O)N2C3CC2CC(C(F)(F)F)C3)cc1-c1ccccn1` (single isomer, unassigned) [Example 86, N-(4-methyl-3-pyridin-2-ylphenyl)-3-(trifluoromethyl)-6-azabicyclo[3.1.1]heptane-6-carboxamide]: the IC50 under setting [1] was found to be 0.01 µM and the IC50 under setting [2] was in the range of 0.0001 to 1 µM.

Take `Cc1ccc(NC(=O)[C@@H]2[C@@H]3CC[C@H]2N(CC(F)(F)F)C3)cc1-c1ccccn1` (single isomer, unassigned) [Example 104, trans-N-(4-methyl-3-(pyridin-2-yl)phenyl)-2-(2,2,2-trifluoroethyl)-2-azabicyclo[2.2.1]heptane-7-carboxamide]: the IC50 is 1 to 10 µM under setting [3] and 2.6 µM under setting [1].

On to `Cc1ccc(NC(=O)[C@@H]2[C@@H]3CC[C@H]2N(CC(F)(F)F)C3)cc1-c1ccccn1` (single isomer, unassigned) [Example 105, trans-N-(4-methyl-3-(pyridin-2-yl)phenyl)-2-(2,2,2-trifluoroethyl)-2-azabicyclo[2.2.1]heptane-7-carboxamide], for which the IC50 is greater than 10 µM under setting [3] and 17 µM under setting [1].

For `CC[C@H]1C[C@@H]1C(=O)Nc1ccc(C)c(-c2ccccn2)c1` (single isomer, unassigned) [Example 107, trans-2-ethyl-N-(4-methyl-3-pyridin-2-ylphenyl)cyclopropane-1-carboxamide], the IC50 by setting is: under setting [3], greater than 10 µM; under setting [1], 18 µM.

`CC[C@H]1C[C@H]1C(=O)Nc1ccc(C)c(-c2ccccn2)c1` (single isomer, unassigned) [Example 109, cis-2-ethyl-N-(4-methyl-3-pyridin-2-ylphenyl)cyclopropane-1-carboxamide]: the IC50 was 0.3 µM under setting [1] and 0.0001 to 1 µM under setting [2].

Turning to `CC[C@H]1C[C@H]1C(=O)Nc1ccc(C)c(-c2ccccn2)c1` (single isomer, unassigned) [Example 110, cis-2-ethyl-N-(4-methyl-3-pyridin-2-ylphenyl)cyclopropane-1-carboxamide], the IC50 was 1 to 10 µM under setting [3] and 6 µM under setting [1].

As for `Cc1ccc(NC(=O)[C@H]2C[C@H](C3CC3)C2)cc1-c1ccccn1` (single isomer, unassigned) [Example 121, trans-3-cyclopropyl-N-(4-methyl-3-pyridin-2-ylphenyl)cyclobutane-1-carboxamide], the IC50 is, setting by setting: under setting [1], 0.9 µM; under setting [2], 0.0001 to 1 µM.

As to `Cc1ccc(NC(=O)[C@H]2C[C@@H](C3CC3)C2)cc1-c1ccccn1` (single isomer, unassigned) [Example 122, cis-3-cyclopropyl-N-(4-methyl-3-pyridin-2-ylphenyl)cyclobutane-1-carboxamide], the IC50 was 0.3 µM under setting [1] and 0.0001 to 1 µM under setting [2].

In the case of `Cc1ccc(NC(=O)C2CC3CC[C@H]2C3)cc1-c1ccccn1` (single isomer, unassigned) [Example 137, trans-N-(4-methyl-3-pyridin-2-ylphenyl)bicyclo[2.2.1]heptane-2-carboxamide], the concentration for half-maximal inhibition (IC50) by setting is: under setting [1], 0.1 µM; under setting [2], 0.0001 to 1 µM.

`Cc1ccc(NC(=O)[C@@H]2C[C@H]3CC[C@@H]2C3)cc1-c1ccccn1` (single isomer, unassigned) [Example 138, cis-N-(4-methyl-3-pyridin-2-ylphenyl)bicyclo[2.2.1]heptane-2-carboxamide]: the IC50 by setting is: under setting [1], 0.7 µM; under setting [2], 0.0001 to 1 µM.

(Values after patent US20250171462A1 (NICO Therapeutics, Inc., priority 2022, published 2025).)
